Where a name gives a salt, the structure may show the parent alone.
How the values were obtained:
male Wistar rats [1] = experiment: ABR thresholds after acoustic trauma and trans-tympanic treatment (Example 5); type: in vivo
Description: Fourty-three male Wistar rats were selected and distributed to treatment and control groups, each group comprising between 6 to 9 rats at the start of the study. Randomization was performed using the ABR threshold in the left ear at 16 kHz as a criterium. The “sham” group comprises 7 rats, which received neither noise exposure nor trans-tympanic injection. […] The “traumatized” group comprises 9 rats, which received noise exposure only and no treatment. The “traumatized vehicle” group comprises 7 rats, which received noise exposure and a trans-tympanic injection of placebo (a composition comprising only Cremophor EL®). The “traumatized paliroden” group comprises 7 rats, which received noise exposure and a trans-tympanic injection of a composition comprising paliroden (fumarate salt), corresponding to composition 7P described in Example 2. The “traumatized xaliproden” group comprises 7 rats, which received noise exposure and a trans-tympanic injection of a composition comprising xaliproden (hydrochloride salt), corresponding to composition 7X described in Example 2.
All animals (except sham group) received a bilateral noise exposure at a noise band of 8-16 kHz at 115 dB SPL RMS during 2 hours (from time T0 to time T0+2 hours).
30 μL of compositions comprising either paliroden or xaliproden as active agent were administered once in both ears of each rat of the treatment groups (30 μL per ear) via trans-tympanic administration by injection between the eardrum and the round window by means of a needle which crosses the eardrum, 4 hours after the start of the noise exposure (i.e. at T0+4 hours, thus 2 hours after the end of the noise exposure), under isoflurane anesthesia. The compositions correspond respectively to compositions 7P and 7X described in Example 2, i.e. they comprise only Cremophor EL® as excipient and either paliroden (fumarate salt) or xaliproden (hydrochloride salt) as active agent. The dose of paliroden (fumarate salt) that is administered is 240 μg per ear of the rats belonging to the “traumatized paliroden” group (240 μg in the 30 μL that are injected via trans-tympanic route by injection between the eardrum and the round window by means of a needle which crosses the eardrum). The dose of xaliproden (hydrochloride salt) that is administered is 192 μg per ear of the rats belonging to the “traumatized xaliproden” group (192 μg in the 30 μL that are injected via trans-tympanic route by injection between the eardrum and the round window by means of a needle which crosses the eardrum). […]

male Wistar rats [2] = experiment: ABR/DPOAE assessment, noise-induced permanent hearing loss, delayed trans-tympanic treatment (Example 7); type: in vivo; details: T0+28 days, versus traumatized animals untreated or vehicle; treatment 2 days and 9 days post-noise
Description: Forty male Wistar rats were selected and evenly distributed to treatment and control groups, each group comprising 8 rats at the end of the study. Randomization was performed using the ABR threshold in the left ear at 16 kHz as a criterium. The “sham” group consists in rats (n=8) that received neither noise exposure nor trans-tympanic injection. The “traumatized NaCl” group consists of rats (n=8) that received noise exposure only and trans-tympanic injections of a saline solution. The “traumatized vehicle” group consists in rats (n=8) that received noise exposure and trans-tympanic injections of placebo (a composition comprising Poloxamer 407 (7,2% w/w), Poloxamer 188 (8% w/w) and Cremophor EL® (20% w/w) in phosphate buffer pH=7.4, the percentages being expressed relative to the total weight of the composition). The “traumatized paliroden” group consists in rats (n=8) that received noise exposure and trans-tympanic injections of a composition comprising paliroden (fumarate salt), corresponding to composition 4P described in Example 2. The “traumatized xaliproden” group consists in rats (n=10) that received noise exposure and a trans-tympanic injection of a composition comprising xaliproden (hydrochloride salt), corresponding to composition 4X described in Example 2. […]

[3] = one day following noise exposure, from 25 to 32 kHz, paliroden 240 μg/ear, xaliproden 192 μg/ear

Row | SMILES | ABR Threshold shifts reduction in comparison to the traumatized vehicle group (male Wistar rats [1]; 7 days post-noise, from 16 to 32 kHz, paliroden 240 μg/ear) | ABR Threshold shifts reduction in comparison to the traumatized vehicle group (male Wistar rats [1]; [3]) | Effect on ABR thresholds, DPOAE amplitudes, ABR Wave I amplitudes (male Wistar rats [2]) | ABR Threshold shifts reduction in comparison to the traumatized vehicle group (male Wistar rats [1]; 7 days post-noise, from 25 to 32 kHz, xaliproden 192 μg/ear)
1 | FC(F)(F)c1cccc(C2=CCN(CCc3ccc(-c4ccccc4)cc3)CC2)c1 [paliroden (fumarate salt), 1-[2-(4-biphenylyl)ethyl]-4-(3-trifluoromethylphenyl)-1,2,3,6-tetrahydropyridine] | 15-20 dB | approximately 10 dB | did not show effect | –
2 | FC(F)(F)c1cccc(C2=CCN(CCc3ccc4ccccc4c3)CC2)c1 [xaliproden (hydrochloride salt), 1-[2-(2-naphthyl)ethyl]-4-(3-trifluoromethylphenyl)-1,2,3,6-tetrahydropyridine] | – | approximately 10 dB | did not show effect | approximately 15 dB
